Test results from patent US20260317367A1, “SALTS INCLUDING CRYSTALLINE SALTS OF 25-HYDROXY-CHOLEST-5-EN-3-SULFATE AND METHODS FOR PREPARING SAME” (Durect Corporation, priority 2022, published 2026).
“Also recorded” adds a separate entry of the source. Structures can show the parent of a compound that is named as a salt.

Assays:
Assay type in all cases: physicochemical
[1] = Final pH of the solubility sample solutions in aqueous media; conditions: for pH of the solubility sample, 0.9% Sodium Chloride: 0.9% sodium chloride (blank 5.8); for pH of the solubility sample, 5% Dextrose: 5% dextrose (blank 4.7); for pH of the solubility sample, FaSSGF: FaSSGF (blank 1.5, 1.6); for pH of the solubility sample, FaSSIF: FaSSIF (blank 6.5, 6.5); for pH of the solubility sample, FeSSIF: FeSSIF (blank 4.9, 5.0); for pH of the solubility sample, Water: water (blank 6.3)
In short: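 Undiluted HPLC assay of centrifuged (12000 rpm, 12–15 min) supernatants from aqueous 25HC3S salt suspensions. These suspensions were kept with excess solid and shaken one day at room temperature, 210 motions/min.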

[2] = Solid-state chemical stability of 25HC3S salts at 2-8° C., 60° C. and 80° C. (HPLC assay and degradation products); conditions: for % Impurities, Total / % Impurities, 25-HC: ND = Not Detected; for % Impurities, 25-HC: 25-Hydroxy-Cholesterol; for % Recovery: vs 2-8° C.
In short: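 Crystalline 25HC3S salts (~25 mg powder per vial) stored at 2-8° C. or 80° C., pulled at 3 and 6 weeks; some 3-week 2-8° C. vials moved to 60° C. for 1 week. Dissolved in 100% methanol (sonication/vortexing, centrifugation or dilution), then HPLC against 25HC3S sodium standards (0.75-1.25 mg/mL) for assay and degradants.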

[3] = Appearance (color, clumping, flowability) of stored 25HC3S salts
[4] = Angle of repose of 25HC3S salts; conditions: for Flow Property per USP<1174> Powder Flow: classification by angle of repose
In short: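 About 2 g of salt powder was poured through a 7 mm inner-diameter tube into a 21.14 mm rubber O-ring, forming a cone of fixed diameter. Cone height was measured with calipers and the angle of repose was calculated from it. Flow was classified per USP<1174>.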

[5] = Thermogravimetric analysis (TGA), weight loss
In short: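 Mettler-Toledo TGA/DSC3, calibrated with indium, tin and zinc, balance checked with calcium oxalate. Sample in a hermetically sealed aluminium pan with pierced lid, heated under nitrogen from ambient to 350° C at 10° C/min. Weight loss reported against sample temperature.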

[6] = listed as 25HC3S diethanolamine
[7] = 2-8° C., 3 wk, listed as 25HC3S diethanolamine
[8] = 2-8° C., 5 wk, listed as 25HC3S diethanolamine
[9] = 80° C., 3 wk, listed as 25HC3S diethanolamine
[10] = 80° C., 5 wk, listed as 25HC3S diethanolamine
[11] = 80° C., 5 wk, 50400 min, listed as 25HC3S diethanolamine
[12] = listed as 25HC3S t-butylammonium
[13] = 2-8° C., 3 wk, listed as 25HC3S t-butylammonium
[14] = 2-8° C., 5 wk, listed as 25HC3S t-butylammonium
[15] = 80° C., 3 wk, listed as 25HC3S t-butylammonium
[16] = 80° C., 5 wk, listed as 25HC3S t-butylammonium
[17] = 80° C., 5 wk, 50400 min, listed as 25HC3S t-butylammonium
[18] = 2-8° C., 3 wk, listed as 25HC3S magnesium
[19] = 60° C., 1 week, listed as 25HC3S Magnesium
[20] = 80° C., 3 weeks, listed as 25HC3S Magnesium
[21] = 80° C., 3 wk, listed as 25HC3S magnesium

Compound: CC(CCCC(C)(C)O)C1CCC2C3CC=C4CC(OS(=O)(=O)O)CCC4(C)C3CCC12C (stereo not drawn) [Salt #10]
- pH of the solubility sample, 0.9% Sodium Chloride [1, 6]: 7.9
- pH of the solubility sample, 5% Dextrose [1, 6]: 7.2
- pH of the solubility sample, FaSSGF [1]: 1.6
- pH of the solubility sample, FaSSIF [1, 6]: 6.5
- pH of the solubility sample, FeSSIF [1, 6]: 4.9
- pH of the solubility sample, Water [1, 6]: 8.2
- Assay ([2]; 2-8° C., 3 wk, 30240 min, listed as 25HC3S diethanolamine): 100.2 % w/w
- % Impurities, Total [2, 7]: 1.8%
- Assay ([2]; 2-8° C., 5 wk, 50400 min, listed as 25HC3S diethanolamine): 107.0 % w/w
- % Impurities, Total [2, 8]: 1.9%
- Overall physical and chemical stability (in words) ([2]; 2-8° C., 60° C., 80° C.): physically and chemically stable
- Overall physical and chemical stability (in words) ([2]; 2-8° C., 60° C., 80° C., listed as diethanolamine): relatively stable
- % Impurities, 25-HC [2, 7]: 0.4%
- % Impurities, 25-HC [2, 8]: 0.4%
- % Impurities, 25-HC [2, 9]: 0.9%
- % Impurities, 25-HC [2, 10]: 1.2%
- Stressed stability at 80° C. (in words) ([2]; 80° C.): good, stressed stability
- % Recovery ([2]; 80° C., 3 wk, 30240 min, listed as 25HC3S diethanolamine, 30240 min): 99.4%
- Assay ([2]; 80° C., 3 wk, 30240 min, listed as 25HC3S diethanolamine): 99.6 % w/w
- % Impurities, Total [2, 9]: 2.8%
- Physical and chemical solid-state stability (comments) ([2]; 80° C., 5 weeks): Stable after 5 weeks at 80 °C physically and chemically.
- % Recovery, 2-8° C./5 wk vs 80° C./5 wk [2, 11]: 97.7%
- Assay [2, 11]: 104.5 % w/w
- % Impurities, Total [2, 10]: 3.5%
- Stability after 5 weeks at 80° C. (in words) ([2]; solid state, 80° C., 5 weeks): stable
- Appearance [3, 7]: White, free flowing powder with clumping
- Appearance ([3]; 2-8° C., 5 wk): White, free flowing powder with clumping
- Appearance [3, 9]: White, free flowing powder with clumping
- Appearance ([3]; 80° C., 5 wk): White, free flowing powder with clumping
- Flow Property per USP<1174> Powder Flow [4, 6]: Passable - may hang up
- Angle of Repose [4, 6]: 49.2 degrees
- Angle of Repose, Rounded Whole Number [4, 6]: 49 degrees
- Weight loss by TGA up to 175° C. (in words) ([5]; up to 175° C.): Negligible weight loss

Compound: CC(CCCC(C)(C)O)C1CCC2C3CC=C4CC(OS(=O)(=O)O)CCC4(C)C3CCC12C (stereo not drawn) [Salt #12]
- pH of the solubility sample, 0.9% Sodium Chloride [1, 12]: 8.4
- pH of the solubility sample, 5% Dextrose [1, 12]: 7.2
- pH of the solubility sample, FaSSGF [1]: 1.6
- pH of the solubility sample, FaSSIF [1, 12]: 6.5
- pH of the solubility sample, FeSSIF [1]: 5.0
- pH of the solubility sample, Water [1, 12]: 8.5
- Assay ([2]; 2-8° C., 3 wk, 30240 min, listed as 25HC3S t-butylammonium): 99.8 % w/w
- % Impurities, Total [2, 13]: 1.5%
- Assay ([2]; 2-8° C., 5 wk, 50400 min, listed as 25HC3S t-butylammonium): 106.2 % w/w
- % Impurities, Total [2, 14]: 1.5%
- Overall physical and chemical stability (in words) ([2]; 2-8° C., 60° C., 80° C.): physically and chemically stable
- Overall physical and chemical stability (in words) ([2]; 2-8° C., 60° C., 80° C., listed as t-butylammonium): relatively stable
- % Impurities, 25-HC [2, 13]: 0.3%
- % Impurities, 25-HC [2, 14]: 0.3%
- % Impurities, 25-HC [2, 15]: 0.3%
- % Impurities, 25-HC [2, 16]: 0.2%
- Stressed stability at 80° C. (in words) ([2]; 80° C.): good, stressed stability
- % Recovery ([2]; 80° C., 3 wk, 30240 min, listed as 25HC3S t-butylammonium, 30240 min): 99.4%
- Assay ([2]; 80° C., 3 wk, 30240 min, listed as 25HC3S t-butylammonium): 99.2 % w/w
- % Impurities, Total [2, 15]: 1.7%
- Physical and chemical solid-state stability (comments) ([2]; 80° C., 5 weeks): Stable after 5 weeks at 80 °C physically and chemically.
- % Recovery, 2-8° C./5 wk vs 80° C./5 wk [2, 17]: 98.8%
- Assay [2, 17]: 104.9 % w/w
- % Impurities, Total [2, 16]: 1.6%
- Stability after 5 weeks at 80° C. (in words) ([2]; solid state, 80° C., 5 weeks): stable
- Appearance [3, 13]: White, free flowing powder with clumping
- Appearance ([3]; 2-8° C., 5 wk): White, free flowing powder with clumping
- Appearance [3, 15]: White, free flowing powder with clumping
- Appearance ([3]; 80° C., 5 wk): White, free flowing powder with clumping
- Flow Property per USP<1174> Powder Flow [4, 12]: Poor - must agitate,
- Angle of Repose [4, 12]: 46.3 degrees
- Angle of Repose, Rounded Whole Number [4, 12]: 46 degrees
- Weight loss by TGA up to 200° C. ([5]; up to 200° C., listed as crystalline 25HC3S t-butylammonium): 0.2%

Compound: CC(CCCC(C)(C)O)C1CCC2C3CC=C4CC(OS(=O)(=O)O)CCC4(C)C3CCC12C (stereo not drawn) [Salt #13]
- pH of the solubility sample, 0.9% Sodium Chloride ([1]; listed as 25HC3S magnesium): 8.3
- pH of the solubility sample, 5% Dextrose ([1]; listed as 25HC3S magnesium): 7.1
- pH of the solubility sample, FaSSGF [1]: 1.6
- pH of the solubility sample, FaSSIF ([1]; listed as 25HC3S magnesium): 6.5
- pH of the solubility sample, FeSSIF ([1]; listed as 25HC3S magnesium): 4.9
- pH of the solubility sample, Water ([1]; listed as 25HC3S magnesium): 8.7
- Assay ([2]; 2-8° C., 3 wk, 30240 min, listed as 25HC3S magnesium): 90.8 % w/w
- % Impurities, Total [2, 18]: 1.6%
- Overall physical and chemical stability (in words) ([2]; 2-8° C., 60° C., 80° C.): least physically and chemically stable
- Overall physical and chemical stability (in words) ([2]; 2-8° C., 60° C., 80° C., listed as magnesium): least stable
- % Impurities, 25-HC [2, 18]: 0.3%
- Physical and chemical solid-state stability (comments) [2, 19]: Totally decomposed after 1 week at 60 °C
- dissolution of decomposed samples in diluent / degradants observed (comments) [2, 19]: decomposed samples at 60 °C after 1 week did not dissolve in the diluent,; also recorded: therefore, no degradants were observed. However, the decomposed
- Assay ([2]; 60° C., 1 wk (after 3 weeks at 2-8° C.), 10080 min, listed as 25HC3S magnesium, 10080 min): 0.0 % w/w
- % Recovery of 2-8° C./3 wk vs 60° C./1 wk ([2]; 60° C., 1 wk, 10080 min, listed as 25HC3S magnesium): 0.0%
- Physical and chemical solid-state stability (comments) [2, 20]: Totally decomposed after 1 week at 60 °C and after 3 weeks at 80 °C
- dissolution of decomposed samples in diluent / degradants observed (comments) [2, 20]: samples at 80 °C after 3 weeks may have dissolved slightly in the diluent,; also recorded: therefore, degradation products were observed
- % Recovery ([2]; 80° C., 3 wk, 30240 min, listed as 25HC3S magnesium, 30240 min): 0.0%
- Assay ([2]; 80° C., 3 wk, 30240 min, listed as 25HC3S magnesium): 0.0 % w/w
- % Impurities, Total [2, 21]: 100%
- Stability after 1 week at 60° C. (in words) ([2]; solid state, 60° C., 1 week (after 3 weeks at 2-8° C.)): totally decomposed
- Stability after 3 weeks at 80° C. (in words) ([2]; solid state, 80° C., 3 weeks): totally decomposed
- Appearance [3, 18]: White, free flowing powder, no clumping
- Appearance ([3]; 60° C., 1 wk (after 3 weeks at 2-8° C.), listed as 25HC3S magnesium): Brown, melted material stuck to bottom
- Appearance after 3 weeks at 80° C. ([3]; 80° C., 3 weeks): completely burned
- Appearance [3, 21]: Dark brown, melted material stuck to
- Flow Property per USP<1174> Powder Flow ([4]; listed as 25HC3S magnesium): Fair - aid not needed
- Angle of Repose ([4]; listed as 25HC3S magnesium): 37.7 degrees
- Angle of Repose, Rounded Whole Number ([4]; listed as 25HC3S magnesium): 38 degrees
- Weight loss by TGA up to 127° C. ([5]; up to 127° C.): about 1.5%
